Marks after values point to notes of the source that are not given here.

The source of these data is patent publication US8716288B2, “Composition comprising benproperine derivatives as active ingredients for preventing and treating angiogenesis-related diseases” (Korea Research Institute of Bioscience and Biotechnology, priority 2010, dated 2014).

For data set [1], the system named is DLD-1 cell (human colorectal cancer cell line in which PRL-3 is over-expressed). Briefly: In vitro cell migration, trans-well assay. It counts as cell-based. As to conditions: for inhibitory activity against cell migration for colorectal cancer cell line: DLD-1, compared with control sample of 0.1% DMSO, FIG. 4. How it is done: In order to analyze inhibitory activity against in vitro cell migration of the benproperine derivative according to the present invention, after DLD-1 cell (ATCC-CCL-221), which is the human colorectal cancer cell lines in which PRL-3, cancer metastasis-related genes, is over-expressed, was grown around by 90% on the culture plate containing RPMI medium, the medium was removed and the cell was washed with PBS. The washed cell was processed with trypsin-EDTA, cultured CO2 incubator at 37° C. for […], and then detached. The resultant cells in which 10% FBS-containing RPMI medium was added were collected in the falcon tube and the medium was removed by centrifugation. The process in which FBS-free RPMI medium were added in the obtained cells and the medium was removed by centrifugation was repeated twice. After the obtained cells in which FBS-free RPMI medium was added were suspended, the number of cells was counted using a hemocytometer.
The cells of 8×10^4 cells/200 μl were added to trans-wells which were placed on 24-well plates. FBS-free RPMI medium of 500 μl was added using the empty space where trans-wells were placed on well plates and cultured in a CO2 incubator at 37° C. for 12 to 16 hours. After the medium has been removed by placing trans-wells upside down on hand towel following culture, crystal violet of 500 μl (20% MeOH in 5 mg/ml) was added to each well of 24-well plates and trans-wells were put in a CO2 incubator for 30 minutes. Stained trans-wells were washed with PBS and placed upside down on hand towel so that the remaining solution was impregnated. Membrane was placed on the cover slip with the side where the cells didn't move facing upwards and wiped well with a cotton swab. The cover slip on whose edges nail polish was applied a little was put on a slide glass and fixed. The prepared sample was photographed with an inverted microscope (TE 300, Nikon, Japan) equipped with digital camera and the number of cells having moved was counted.
Inhibitory activity against cell migration of benproperine and pharmaceutically acceptable salt thereof in Formulas 2 to 4 according to the present invention was observed by the above method, and inhibition rate was calculated by the Mathematical Equation 1.
Wherein the control sample was observed by adding 0.1% dimethyl sulfoxide (DMSO) only without addition of the compound in the present invention.

For data set [2], the system named is human-derived pancreatic cancer cell line (AsPC-1). Put plainly: In vivo metastasis of cancer, AsPC-1 transplanted in caudal vein, bioluminescence imaging. More on the design: species or system BALB/C nude mouse. As to conditions: 50 mg/kg orally, 28th day after drug administration, lung, FIG. 8. From the text:
In order to examine the in vivo inhibitory activity of the salt of benproperine of the present invention against metastasis of cancer, the inhibitory activity of benproperine phosphate (MD-164) against metastasis of cancer and toxicity of the same were examined by using the animal model which was transplanted with human-derived pancreatic cancer cell line (AsPC-1) in caudal vein.
To be specific, the human-derived pancreatic cancer cell line AsPC-1 (adenocarcinoma; Pancrease cancer) had been stored frozen in liquid nitrogen and it was thawed and cultured in CO2 incubator (Form a, USA) with 5% CO2 at 37° C. Specific-pathogen-free (SPF) BALB/C nude mouse (orient, Korea) was used in this experiment. […]
Secondly, in order to establish an animal model of pulmonary metastases, luciferase stably expressing AsPC-1 cell line was transplanted into a tail vein of mouse at a dose of 1×10^6 cells/mouse. […] The bioluminescence value was measured for equal area of each mouse subject, and the metastasis inhibition rate (%) in the group administered with benproperine phosphate was determined compared to a control group by the Mathematical Equation 2.
On the 28th day after drug administration, the lung of animal model was collected, the number of colony was measured, and imaging signal (photone/s/sr) was also measured.

A short description of data set [3]: Weight change in the AsPC-1 metastasis model (toxicity). It is filed as in vivo, BALB/C nude mouse. To be noted: 50 and 100 mg/kg orally, five times a week, total of 20 times, FIG. 7. How it is done:
To be specific, the human-derived pancreatic cancer cell line AsPC-1 (adenocarcinoma; Pancrease cancer) had been stored frozen in liquid nitrogen and it was thawed and cultured in CO2 incubator (Form a, USA) with 5% CO2 at 37° C. Specific-pathogen-free (SPF) BALB/C nude mouse (orient, Korea) was used in this experiment.
The cultured cells were collected and diluted to a cell concentration of 5×10^6 cells/ml by adding serum free media. Then, the animal model was prepared by intravenous administration of 0.2 ml of the cell culture to each mouse. Subsequently, 5 mg/ml of benproperine phosphate (MD-164) (KRIBB, Korea) was prepared by dissolving it in 0.5% Tween80 and orally administered to the mouse at a dose of 10 ml/kg five times a week, for a total of 20 times.
First, in order to analyze the toxicity of benproperine phosphate, the weight of all test groups was measured prior to administration of the compound, three times a week during the test period.

Data set [4] concerns DLD-1 cell (human colorectal cancer cell line in which PRL-3 is over-expressed). Briefly: Cytotoxicity of benproperine, WST-1 assay. It counts as cell-based. To be noted: DLD-1 cells, 48 hours, up to 10 μM, WST-1 absorbance at 450 nm, FIG. 2. How it is done:
In order to examine the cytotoxicity of the benproperine derivative prepared in Reference Example 1, after DLD-1 cell (ATCC-CCL-221), which is the human colorectal cancer cell lines in which PRL-3 cancer metastasis-related genes is over-expressed, was cultured in the RPMI culture medium containing 10% fetal bovine serum (FBS) and maintained at 37° C., 5% CO2, the cell was detached using 0.05% trypsin-EDTA. 4×10^3 cells which were calculated by hemocytometer were inoculated in each well of 96-well plates medium containing 10% FBS, and cultured in 37° C. incubator containing 5% CO2. After 24 hours, the culture medium of each well was replaced with new medium containing control (0.1% DMSO) and benproperine in Formula 2, which was prepared in Reference Example 1, by concentration (5 to 10 μM) and replace it with a new medium, and was cultured in 37° C., 5% CO2 incubator for 48 hours. After WST-1 (Roche) of 10 μl was added in each well of the above plate followed by 2 hours of culture, absorbance was measured at 450 nm using ELISA reader (Bio-Rad).

For data set [5], the system named is pancreatic cancer cell line AsPc-1 cells. Briefly: In vitro cell migration, trans-well assay. It is filed as cell-based, human. As to conditions: 10 μM, AsPc-1, FIG. 5.
Data set [6] concerns B16F10 human melanoma cells. Put plainly: In vivo metastasis of cancer, melanoma cells inoculated to tail vein, lung colony count. More on the design: species or system C57BL/6 mouse. As to conditions: 50 mg/kg intraperitoneally once a day, 14 times in total; for Inhibition rate (%) of metastasis: compared with control group, p < 0.001. How it is done: In order to analyze inhibitory activity against in vivo cell migration of benproperine according to the present invention, inhibitory activity against metastasis of cancer of benproperine was analyzed using tumor model where melanoma cells are transplanted.
Specifically, B16F10 […] melanoma cell line (ATCC-CRL-6475) was inoculated to DMEM (GIBCO, USA) medium containing 10% FBS (GIBCO, USA), and cultured at 5% CO2, 37° C. 7-week-old female specific pathogen free (SPF) C57BL/6 mouse was adapted to the laboratory environment by supplying enough antibiotic-free pellet feed (Samyang feed Inc., South Korea) and sterilized tap water, and then used in the experiment.
Cultured B16F10 […] melanoma cells were suspended in PBS 200 μl at the concentration of 2×10^6 cells/ml, and inoculated […] to tail vein of the above mouse using a 26 gauge needle. After 3 hours of inoculation, the mice were divided into two groups in which the control group treated with sterile distilled water and the experimental group was intraperitoneally administered with benproperine of 50 mg/kg once a day, 14 times in total. The administration continued for 13 consecutive days, and then stopped. On day after the administration, autopsy was performed to the mouse of each group to extract the lung, and the number of colonies of metastasized cancer cells (melanoma cells) was counted.

Data set [7] relates to vascular endothelial cell HUVECs. Put plainly: In vitro endothelial morphogenesis assay (tube formation on Matrigel). It counts as cell-based, human. To be noted: 24 hours, FIG. 6. Here is the method: Specifically, HUVECs (ATCC-CRL-2873) was brought into the starvation state by culturing in a serum-free medium overnight. Matrigel matrix (BD biosciences) of 0.2 ml was added in each well of 24-well plates and placed in the 37° C. incubator for 1 hour to coat the surface of well. 0.2 ml 2×10^4 cells prepared in the above were added to each well coated with Matrigel matrix and cultured in a CO2 incubator for 30 minutes. After culture, fresh medium containing benproperine of 1, 5, and 10 μM concentration was added in each well followed by the addition of 1% serum and cultured in a CO2 incubator for 24 hours. After culture, the degree of inhibitory activity against HUVECs tube formation of benproperine was observed under a microscope.

Data set [8] is described as follows: Acute toxicity experiment of oral administration to rats. As to conditions: rat, in vivo, 1000 mg/kg. How it is done:
In order to identify the toxicity of benproperine and pharmaceutically acceptable salt thereof according to the present invention, acute toxicity experiment was performed with laboratory animal as the subject as follow.
After 6-week-old specific pathogen free (SPF) SD bred rats were divided into groups of 2 specimens, and were orally administered once with benproperine which was prepared in Reference Example 1 and dissolved in injectable distilled water with a dose of 1000 mg/kg.

The subject of data set [9] is melanoma cell line B16F10. Put plainly: In vitro cell migration, trans-well assay. To be noted: 10 μM, B16F10, FIG. 5. It counts as cell-based, mouse.
A short description of data set [10]: In vitro cell migration, trans-well assay. It is filed as cell-based, human. To be noted: 10 μM, A375P, FIG. 5.

For the molecule `CC(COc1ccccc1Cc1ccccc1O)N1CCCCC1` (centres unmarked) [2-hydroxybenproperine], the “inhibitory activity against cell migration for colorectal cancer cell line” value (“inhibitory activity” below) in [1] is given as “inhibit effectively”.
As to benproperine phosphate, the “inhibition rate against metastasis compared to a control group” value in data set [2] came to 71.5%. In addition, in data set [3], the “weight loss in comparison to a control group” value is listed as “no significant weight loss”.
With `CC(COc1ccccc1Cc1ccccc1)N1CCCCC1` (centres unmarked) [benproperine], the cytotoxicity result in data set [4] is “no cytotoxicity”. For the same molecule, the “cell migration compared with DMSO-treated sample” value in data set [5] is listed as “prominently inhibited”; in data set [9] it was “prominently inhibited”; in data set [1] (10 μM, DLD-1, FIG. 5), “prominently inhibited”; in data set [10], “prominently inhibited”. The entries for the “Inhibition rate (%) of metastasis” value in data set [6] and in data set [6] (listed as Benproperine) were 45.1% and 45.1* %, respectively. Further, the “Number of lung colony (average ± SD)” value in [6] (negative control 106 ± 23.3) was determined as 58.2 ± 25.8. Further, the “inhibition of tube formation of HUVECs” value in [7] (10 μM, compared to DMSO-treated control group) is reported as “significantly”; in data set [7] (1, 5 and 10 μM) it was “concentration-dependent manner”. In addition, in [8] (Sprague-Dawley (SD), rats, single oral administration, read-out: minimum lethal dose (LD50) for oral administration), the LD50 was more than 1000 mg/kg. In [8] (po), the “clinical symptoms, death, or weight changes” value is “not observed”. In addition, the “toxic change (hematological examination, biochemical examination of blood, autopsy)” value in [8] (po) was “no toxic change”. Further, the “inhibitory activity” value in data set [1] was “inhibit effectively”. Moreover, in [1] (Homo sapiens, 5 μM, DLD-1, control 0.1% DMSO, FIG. 3, read-out: inhibition of migration of colorectal cancer cell compared to control), the inhibition at 5 µM is more than 80%. In addition, the inhibition at 10 µM in [1] (Homo sapiens, 10 μM, DLD-1, control 0.1% DMSO, FIG. 3, read-out: inhibition of migration of colorectal cancer cell compared to control) is more than 90%.
For the molecule `CC(COc1ccccc1Cc1ccccc1)N1CCCC(O)C1` (centres unmarked) [3-hydroxybenproperine], the “inhibitory activity” value in [1] was “inhibit effectively”.
